Consider one molecule from patent US20140357688A1, “METHOD FOR INHIBITING EZH2 EXPRESSION IN BREAST CANCER CELLS” (Yung Shin Pharm. Ind. Co., Ltd., priority 2013, published 2014).

For assay [1], the system named is EZH2. The assay can be described thus: Western blot of EZH2 in tumor from MDA-MB-468 xenograft mice. The class given is in vivo, Nu/Nu mice. On the procedure: (A)(B) Cells were treated with indicated concentration of YC-1 for 24 h (A) or 3 μM of YC-1 for indicated time (B). Cells were harvested and performed with western blotting analysis. […] The levels of protein expression were quantitated and shown under blots. (C) Cells were transfected with EZH2 shRNA for 0, 1, 2, 3, and 4 days and collected for determination of cell viability (left) and protein expression (right). (D)(E) After 4 days of EZH2 knockdown, cells were incubated with 3 μM YC-1 for 4 h and detected cell viability (D) and protein contents (E). (F) Tumor specimens were isolated and protein was extracted for western blot analysis.
Cells were lysed in PBS containing proteinase inhibitor and phosphatase inhibitors and sonication. Protein concentration was measured using the Bio-Rad protein assay kit (Bio-Rad Laboratories, Hercules, Calif., USA). Lysate protein was separated by electrophoresis of SDS-PAGE and transferred to Immobilon P membrane (EMD Millipore). […] The band intensities were analyzed and quantified by the Multi Gauge software (Fuji Photo Film).
Nu/Nu female mice (four weeks old) were from National Laboratory Animal Center, Taipei, Taiwan. […] Tumor size and body weights of mice were measured once per 3 days and tumor volume (mm^3) was calculated as the equation: length×(width)×0.5. […]
On the technique in general: In western blotting, separated proteins are transferred to a membrane and probed.

Another assay relates to Src, Raf-1, and MEK. Kind of assay: Western blot of Src, Raf-1 and MEK activation. The class given is cell-based, human. The following applies: 3 μM YC-1. On the procedure: (A) Cells were pretreated with DMSO (as control), Bay-43-9006 (Bay, 10 μM), farnyesyl thiosalicylic acid (FTS, 10 μM), Src inhibitor I (SrcI, 10 μM), and genistein (Gen, 10 μM), then followed by YC-1 (3 μM) incubation for 6 h. Cells were harvested and lysed for western blot analysis (left, right) and cell viability (middle). The levels of protein expression were quantitated and shown under blots. (B) MDA-MB-468 cells were transfected with shRNA of Raf-1 or Src. After stimulation of 3 μM YC-1 for 4 h, cell protein was subjected to western blot analysis. (C) Cells were incubated with 3 μM YC-1 for indicated time and then lysed for detection of Src, Raf-1, and MEK activation by using specific anti-phosphorylated antibodies. (D) Cells were treated with 3 μM YC-1 for indicated time. Cells were lysed and detected Ras activation by using Raf-RBD conjugated agarose to pull-down Ras-GTP. The total Ras in cell lysate was also detected. […] Cells were lysed and protein expression was determined by western blot analysis. […]
Cells were lysed in PBS containing proteinase inhibitor and phosphatase inhibitors and sonication. Protein concentration was measured using the Bio-Rad protein assay kit (Bio-Rad Laboratories, Hercules, Calif., USA). […] The band intensities were analyzed and quantified by the Multi Gauge software (Fuji Photo Film).

The subject of assay [2] is EZH2. The assay can be described thus: EZH2 ubiquitination assay. It is filed as cell-based, human. The following applies: 3 μM YC-1. On the procedure:
(A) Cells were pretreated with cyclohexamide (30 μM) for 1 h and followed by induction with vehicle (DMSO) or YC-1 (3 μM) for indicated time. Cells were harvested for detection of protein expression. (B)(C) Cells were incubated with 3 μM YC-1 for 6 h in the presence of vehicle, 3 μM MG-132 or 30 μM NH4Cl. Cells were harvested for detection of protein expression (B) or cell viability assay (C). The levels of protein expression were quantitated and shown under blots. (D) After treatment of 3 μM YC-1 for indicated time, cells were harvested and lysed for immunoprecipitation and western blot analysis described in Materials and Methods.
Cells were lysed with MLB buffer (25 mM HEPES, pH 7.5, 150 mM NaCl, 1% Igepal CA-630, 10 mM MgCl2, 1 mM EDTA, 2% glycerol, 1 mM Na3VO4, 1 mM NaF, 1 mM PMSF, 10 μg/ml of leupeptin, aprotinin, and pepstatin A). After sonication, cell lysates were centrifugated at 12,000×g for 10 min at 4° C. Supernatants were incubated with anti-EZH2 antibody (BD Biosciences) and protein A Sepharose beads (GE Health Care) overnight at 4° C. After washing with MLB buffer, precipitated proteins were boiled in 1× Laemmli sample buffer and then separated with SDS-PAGE. The ubiquitination levels of EZH2 were recognized by using anti-Ubiquitn monoclonal antibody.

A further assay relates to EZH2-c-Cbl-ERK. The assay can be described thus: Co-immunoprecipitation of c-Cbl and EZH2. The class given is cell-based, human. The following applies: 3 μM YC-1 with MG-132; after 1 h, maximum at 2 h. On the procedure: (A) c-Cbl knockdown MDA-MB-468 cells were treated with 3 μM YC-1 for 4 h. Cell were harvested for detection of protein expression. (B) Cells were treated with 3 μM YC-1 for indicated time. Cells were collected and c-Cbl phosphorylation was detected. (C) Cells were pretreated with MG-132 (3 μM) or NH4Cl (30 μM) for 1 h followed by 3 μM YC-1 induction for 6 h. (D) Cells were pretreated with MG-132 and followed by 3 μM YC-1 induction for indicated time. Cells were harvested and lysed for immunoprecipitation assay. The association between c-Cbl and EZH2 were determined by western blotting analysis and probed with anti-EZH2 or anti-c-Cbl antibody. Membranes were stripped and reprobed with anti-c-Cbl or anti-EZH2 antibody to check the input. (E) Cells were preincubated with or without PD98059 (10 μM) in the presence of MG-132 for 1 h prior to 2 h-treatment of 3 μM YC-1. Then cells were collected and lysate protein was subjected for the detection of the c-Cbl-EZH2 complexes.
Cells were lysed with RIPA buffer (50 mM Tris-C1, pH 7.5, 1% Igepal CA-630, 150 mM NaCl, 1 mM EDTA, 1 mM Na3VO4, 1 mM NaF, 1 mM PMSF, 10 μg/ml of leupeptin, aprotinin, and pepstatin A) for 30 min at 4° C. One milligram of cell lysate was incubated with anti-EZH2 or anti-c-Cbl antibody and protein A-Sepharose beads, then gently rotated at 4° C. overnight. […]

Regarding `OCc1ccc(-c2nn(Cc3ccccc3)c3ccccc23)o1` [YC-1, 3-(5′-hydroxymethyl-2′-furyl)-1-benzyl indazole], the “EZH2 level in tumor” value with EZH2 [1] is on record as “decrease EZH2 level in tumor”. In addition, the “phosphorylated activation of Src, Raf-1, and MEK” value in the assay with Src, Raf-1, and MEK is listed as “time-dependent phosphorylated activation”. The “ubiquitination of EZH2” value in the assay on EZH2 [2] was “time-dependently promoted the ubiquitination of EZH2”. Further, the “complex formation of EZH2-c-Cbl-ERK” value in the assay on EZH2-c-Cbl-ERK was “induced the complex formation”.
